Test system: subjects with MDD
Assay: MADRS total score, adjunctive aticaprant vs placebo in MDD (Example 6)
Conditions: for MADRS LSMeans difference estimate, supplementary analysis of data collected prior to 15 Mar. 2020 (COVID-19): MMRM
[1] = eITT Analysis Set, High anhedonia, Treatment Week 1
[2] = eITT Analysis Set, High anhedonia, Treatment Week 3
[3] = eITT Analysis Set, High anhedonia, Treatment Week 4
[4] = eITT Analysis Set, High anhedonia, Treatment Week 5
[5] = eITT Analysis Set, High anhedonia, Treatment Week 6
[6] = eITT Analysis Set, Low anhedonia, Treatment Week 1
[7] = eITT Analysis Set, Low anhedonia, Treatment Week 3
[8] = eITT Analysis Set, Low anhedonia, Treatment Week 4
[9] = eITT Analysis Set, Low anhedonia, Treatment Week 5
[10] = eITT Analysis Set, Low anhedonia, Treatment Week 6
[11] = eITT, Treatment Week 1, 10 mg adjunctive to SSRI/SNRI
[12] = eITT, Treatment Week 3, 10 mg adjunctive to SSRI/SNRI
[13] = eITT, Treatment Week 4, 10 mg adjunctive to SSRI/SNRI
[14] = eITT, Treatment Week 5, 10 mg adjunctive to SSRI/SNRI
[15] = eITT, Treatment Week 6, 10 mg adjunctive to SSRI/SNRI
[16] = fITT Analysis Set, High anhedonia, Treatment Week 1
[17] = fITT Analysis Set, High anhedonia, Treatment Week 3
[18] = fITT Analysis Set, High anhedonia, Treatment Week 4
[19] = fITT Analysis Set, High anhedonia, Treatment Week 5
[20] = fITT Analysis Set, High anhedonia, Treatment Week 6
[21] = fITT Analysis Set, Low anhedonia, Treatment Week 1
[22] = fITT Analysis Set, Low anhedonia, Treatment Week 3
[23] = fITT Analysis Set, Low anhedonia, Treatment Week 4
[24] = fITT Analysis Set, Low anhedonia, Treatment Week 5
[25] = fITT Analysis Set, Low anhedonia, Treatment Week 6
[26] = fITT, Treatment Week 1, 10 mg adjunctive to SSRI/SNRI
[27] = fITT, Treatment Week 3, 10 mg adjunctive to SSRI/SNRI
[28] = fITT, Treatment Week 4, 10 mg adjunctive to SSRI/SNRI
[29] = fITT, Treatment Week 5, 10 mg adjunctive to SSRI/SNRI
[30] = fITT, Treatment Week 6, 10 mg adjunctive to SSRI/SNRI
[31] = fITT, Treatment Week 6, high anhedonia level
[32] = fITT, Treatment Week 6, low anhedonia level

## Cc1cc(C)cc(C2CCCN2Cc2ccc(Oc3ccc(C(N)=O)cc3F)cc2)c1 (stereo not shown) [aticaprant, 3-fluoro-4-4-2-(3,5-dimethylphenyl)pyrrolidin-1-yl-methylphenoxybenzamide]
Treatment Week 6, both responders and non-responders during placebo lead-in, 10 mg
  Change from Treatment Baseline in MADRS Total Score, Least Squares Mean (Standard Error): −9.6 ± 0.79 score on a scale
Treatment Week 6, both responders and non-responders during placebo lead-in, 10 mg vs placebo
  MADRS Total Score Least Squares Mean Difference, point estimate: −3.1 score on a scale
[1]
  MADRS Total Score Effect size: −0.39
  MADRS Total Score Mean Change from Baseline (SD): −4.6 (5.25)
  MADRS Total Score Mean Change to Placebo (SD pooled): −1.8 (4.69)
[2]
  MADRS Total Score Effect size: −0.46
  MADRS Total Score Mean Change from Baseline (SD): −6.7 (6.83)
  MADRS Total Score Mean Change to Placebo (SD pooled): −3.0 (6.59)
[3]
  MADRS Total Score Effect size: −0.30
  MADRS Total Score Mean Change from Baseline (SD): −8.5 (7.26)
  MADRS Total Score Mean Change to Placebo (SD pooled): −2.2 (7.30)
[4]
  MADRS Total Score Effect size: −0.33
  MADRS Total Score Mean Change from Baseline (SD): −9.7 (8.18)
  MADRS Total Score Mean Change to Placebo (SD pooled): −2.6 (7.93)
[5]
  MADRS Total Score Effect size: −0.38
  MADRS Total Score Mean Change from Baseline (SD): −11.5 (8.95)
  MADRS Total Score Mean Change to Placebo (SD pooled): −3.4 (8.98)
[6]
  MADRS Total Score Effect size: −0.12
  MADRS Total Score Mean Change from Baseline (SD): −2.3 (5.03)
  MADRS Total Score Mean Change to Placebo (SD pooled): −0.5 (4.30)
[7]
  MADRS Total Score Effect size: −0.01
  MADRS Total Score Mean Change from Baseline (SD): −4.9 (5.99)
  MADRS Total Score Mean Change to Placebo (SD pooled): −0.1 (5.85)
[8]
  MADRS Total Score Effect size: 0.01
  MADRS Total Score Mean Change from Baseline (SD): −6.4 (7.40)
  MADRS Total Score Mean Change to Placebo (SD pooled): 0.0 (6.80)
[9]
  MADRS Total Score Effect size: 0.05
  MADRS Total Score Mean Change from Baseline (SD): −7.2 (6.46)
  MADRS Total Score Mean Change to Placebo (SD pooled): 0.3 (6.65)
[10]
  MADRS Total Score Effect size: −0.11
  MADRS Total Score Mean Change from Baseline (SD): −9.2 (8.01)
  MADRS Total Score Mean Change to Placebo (SD pooled): −0.9 (8.13)
[11]
  MADRS Total Score Change from Baseline LSMean (SE), MMRM: −3.2
  MADRS Total Score LSMean Difference (SE) Treatment - Placebo, MMRM: −1.2 (1.24)
  MADRS Total Score Mean (SD): 25.4
  MADRS Total Score Mean Change from Baseline (SD): −3.3
  MADRS Total Score Mean Change to Placebo (SD pooled): −1.1 (4.52)
eITT, Treatment Week 1, 10 mg adjunctive to SSRI/SNRI, listed as Aticaprant
  MADRS Total Score Mean Change from Baseline (SD): −3.3 (5.21)
eITT, Treatment Week 1, vs placebo, negative favors aticaprant
  MADRS Total Score Effect size: −0.24
[12]
  MADRS Total Score Change from Baseline LSMean (SE), MMRM: −5.6
  MADRS Total Score LSMean Difference (SE) Treatment - Placebo, MMRM: −1.5 (1.25)
  MADRS Total Score Mean (SD): 23.1
  MADRS Total Score Mean Change from Baseline (SD): −5.7
  MADRS Total Score Mean Change to Placebo (SD pooled): −1.4 (6.18)
eITT, Treatment Week 3, 10 mg adjunctive to SSRI/SNRI, listed as Aticaprant
  MADRS Total Score Mean Change from Baseline (SD): −5.7 (6.38)
eITT, Treatment Week 3, vs placebo, negative favors aticaprant
  MADRS Total Score Effect size: −0.22
[13]
  MADRS Total Score Change from Baseline LSMean (SE), MMRM: −7.3
  MADRS Total Score LSMean Difference (SE) Treatment - Placebo, MMRM: −1.1 (1.25)
  MADRS Total Score Mean (SD): 21.5
  MADRS Total Score Mean Change from Baseline (SD): −7.3
  MADRS Total Score Mean Change to Placebo (SD pooled): −0.9 (7.00)
eITT, Treatment Week 4, 10 mg adjunctive to SSRI/SNRI, listed as Aticaprant
  MADRS Total Score Mean Change from Baseline (SD): −7.3 (7.35)
eITT, Treatment Week 4, vs placebo, negative favors aticaprant
  MADRS Total Score Effect size: −0.14
[14]
  MADRS Total Score Change from Baseline LSMean (SE), MMRM: −8.7
  MADRS Total Score LSMean Difference (SE) Treatment - Placebo, MMRM: −1.5 (1.25)
  MADRS Total Score Mean (SD): 20.5
  MADRS Total Score Mean Change from Baseline (SD): −8.4
  MADRS Total Score Mean Change to Placebo (SD pooled): −1.1 (7.25)
eITT, Treatment Week 5, 10 mg adjunctive to SSRI/SNRI, listed as Aticaprant
  MADRS Total Score Mean Change from Baseline (SD): −8.4 (7.36)
eITT, Treatment Week 5, vs placebo, negative favors aticaprant
  MADRS Total Score Effect size: −0.14
eITT, Treatment Week 6
  percentage of subjects with MADRS remission (MADRS total score ≤10): 16.9%
  percentage of subjects with ≥30% improvement in MADRS total score: 57.6%
  percentage of subjects with ≥50% improvement in MADRS total score: 35.6%
[15]
  MADRS Total Score Change from Baseline LSMean (SE), MMRM: −10.1
  MADRS Total Score Mean (SD): 18.6
  MADRS Total Score Mean Change from Baseline (SD): −10.2 (8.44)
  MADRS Total Score Mean Change to Placebo (SD pooled): −2.0 (8.49)
eITT, Treatment Week 6, high anhedonia level (SHAPS total score ≥38 at treatment baseline)
  MADRS total score change, difference between aticaprant and placebo: −3.4
eITT, Treatment Week 6, high anhedonia level (SHAPS ≥38)
  MADRS total score observed effect size: 0.38
eITT, Treatment Week 6, low anhedonia level (20≤ SHAPS <38)
  MADRS total score observed effect size: 0.11
eITT, Treatment Week 6, low anhedonia level (20≤ baseline SHAPS total score <38)
  MADRS total score change, difference between aticaprant and placebo: −0.9
eITT, Treatment Week 6, vs placebo, negative favors aticaprant
  MADRS Total Score Effect size: 0.23
eITT, Treatment Week 6, vs placebo, negative favors aticaprant, listed as Aticaprant
  MADRS Total Score Effect size: −0.23
eITT, vs placebo
  MADRS LSMeans difference estimate, supplementary analysis of data collected prior to 15 Mar. 2020 (COVID-19): −3.0
[16]
  MADRS Total Score Effect size: −0.45
  MADRS Total Score Mean Change from Baseline (SD): −4.4 (5.04)
  MADRS Total Score Mean Change to Placebo (SD pooled): −2.0 (4.38)
[17]
  MADRS Total Score Effect size: −0.54
  MADRS Total Score Mean Change from Baseline (SD): −6.9 (6.66)
  MADRS Total Score Mean Change to Placebo (SD pooled): −3.8 (6.94)
[18]
  MADRS Total Score Effect size: −0.50
  MADRS Total Score Mean Change from Baseline (SD): −8.6 (7.32)
  MADRS Total Score Mean Change to Placebo (SD pooled): −3.8 (7.56)
[19]
  MADRS Total Score Effect size: −0.51
  MADRS Total Score Mean Change from Baseline (SD): −10.2 (8.04)
  MADRS Total Score Mean Change to Placebo (SD pooled): −4.0 (7.87)
[20]
  MADRS Total Score Effect size: −0.51
  MADRS Total Score Mean Change from Baseline (SD): −11.3 (8.69)
  MADRS Total Score Mean Change to Placebo (SD pooled): −4.6 (9.03)
[21]
  MADRS Total Score Effect size: −0.24
  MADRS Total Score Mean Change from Baseline (SD): −2.4 (4.59)
  MADRS Total Score Mean Change to Placebo (SD pooled): −1.0 (4.39)
[22]
  MADRS Total Score Effect size: −0.08
  MADRS Total Score Mean Change from Baseline (SD): −4.1 (6.67)
  MADRS Total Score Mean Change to Placebo (SD pooled): −0.5 (6.37)
[23]
  MADRS Total Score Effect size: −0.23
  MADRS Total Score Mean Change from Baseline (SD): −6.4 (6.77)
  MADRS Total Score Mean Change to Placebo (SD pooled): −1.5 (6.65)
[24]
  MADRS Total Score Effect size: −0.10
  MADRS Total Score Mean Change from Baseline (SD): −7.3 (6.90)
  MADRS Total Score Mean Change to Placebo (SD pooled): −0.7 (6.86)
[25]
  MADRS Total Score Effect size: −0.29
  MADRS Total Score Mean Change from Baseline (SD): −8.8 (7.48)
  MADRS Total Score Mean Change to Placebo (SD pooled): −2.3 (7.80)
[26]
  MADRS Total Score Change from Baseline Mean (SD): −3.1
  MADRS Total Score Mean (SD): 21.7
  MADRS Total Score Mean Change to Placebo (SD pooled): −1.3 (4.43)
fITT, Treatment Week 1, vs placebo, negative favors aticaprant
  MADRS Total Score Effect size: −0.29
[27]
  MADRS Total Score Change from Baseline Mean (SD): −5.1
  MADRS Total Score Mean (SD): 20.0
  MADRS Total Score Mean Change to Placebo (SD pooled): −1.7 (6.62)
fITT, Treatment Week 3, vs placebo, negative favors aticaprant
  MADRS Total Score Effect size: −0.26
[28]
  MADRS Total Score Change from Baseline Mean (SD): −7.2
  MADRS Total Score Mean (SD): 17.9
  MADRS Total Score Mean Change to Placebo (SD pooled): −2.3 (7.02)
fITT, Treatment Week 4, vs placebo, negative favors aticaprant
  MADRS Total Score Effect size: −0.32
[29]
  MADRS Total Score Change from Baseline Mean (SD): −8.3
  MADRS Total Score Mean (SD): 16.7
  MADRS Total Score Mean Change to Placebo (SD pooled): −1.9 (7.31)
fITT, Treatment Week 5, vs placebo, negative favors aticaprant
  MADRS Total Score Effect size: −0.26
fITT, Treatment Week 6
  percentage of subjects with MADRS remission (MADRS total score ≤10): 31.2%
  percentage of subjects with ≥30% improvement in MADRS total score: 61.8%
  percentage of subjects with ≥50% improvement in MADRS total score: 38.2%
[30]
  MADRS Total Score Mean (SD): 15.9
  MADRS Total Score Mean Change to Placebo (SD pooled): −3.0 (8.31)
[31]
  MADRS total score change, difference between aticaprant and placebo: −4.6
  MADRS total score observed effect size: 0.51
[32]
  MADRS total score change, difference between aticaprant and placebo: −2.3
  MADRS total score observed effect size: 0.29
fITT, Treatment Week 6, vs placebo, negative favors aticaprant
  MADRS Total Score Effect size: 0.36
fITT, Treatment Week 6, vs placebo, negative favors aticaprant, listed as Aticaprant
  MADRS Total Score Effect size: −0.36
fITT, vs placebo
  onset of significant treatment effect favoring aticaprant (MADRS least squares mean change, FIG. 10-B): 3 week
  MADRS LSMeans difference estimate, supplementary analysis of data collected prior to 15 Mar. 2020 (COVID-19): −3.4
